Assay results as given in patent US10160738B2, “Neuroactive substituted cyclopent[a]anthracenes as modulators for GABA type-A receptors” (priority 2013, dated 2018).
Read-outs that look alike come from different tables or passages of the source.

How the values were obtained:
[1] = molecular target: picrotoxin binding site on GABAA receptors; assay: [35S]-TBPS displacement (inhibition of [35S]-TBPS binding); conditions: non-competitive displacement; duplicate experiments in triplicate; ± SEM
Description: The IC50 values for non-competitive displacers of [^35S]-TBPS from the picrotoxin binding site on GABAA receptors are reported in Table 1.
Results presented are from duplicate experiments performed in triplicate. Error limits are calculated as standard error of the mean. Methods used are known in the art (see Jiang, X., et al., Neurosteroid analogues. 9. Conformationally constrained pregnanes: structure-activity studies of 13,24-cyclo-18,21-dinorcholane analogues of the GABA modulatory and anesthetic steroids (3α,5α)- and […]. J. Med. Chem., 46: 5334-48 (2003)—the contents of which are hereby incorporated by reference in their entirety).

[2] = molecular target: T1, rat α1β2γ2L type GABAA receptors expressed in Xenopus laevis oocytes (Rattus norvegicus, UniProt P18508+P62813+P63138, INS375LLRMFSFK); assay: Potentiation of GABA-mediated chloride currents, oocyte electrophysiology; format: cell-based; conditions: ± SEM; for Oocyte electrophysiology (gating) 10 μM: direct current gated by 10 μM compound in absence of GABA, ratio compound only current/2 μM GABA current; for Oocyte electrophysiology 0.1 μM: ratio of currents in presence/absence of 0.1 μM compound; for Oocyte electrophysiology 0.1 μM / Oocyte electrophysiology 1.0 μM / Oocyte electrophysiology 10 μM: 2 μM GABA, N≥4; for Oocyte electrophysiology 1.0 μM: ratio of currents in presence/absence of 1.0 μM compound; for Oocyte electrophysiology 10 μM: ratio of currents in presence/absence of 10 μM compound
T1 construct: expressed in transfected cells; host or cells: Xenopus laevis oocytes
T1 sequence (P62813 28-455, stated change not applied): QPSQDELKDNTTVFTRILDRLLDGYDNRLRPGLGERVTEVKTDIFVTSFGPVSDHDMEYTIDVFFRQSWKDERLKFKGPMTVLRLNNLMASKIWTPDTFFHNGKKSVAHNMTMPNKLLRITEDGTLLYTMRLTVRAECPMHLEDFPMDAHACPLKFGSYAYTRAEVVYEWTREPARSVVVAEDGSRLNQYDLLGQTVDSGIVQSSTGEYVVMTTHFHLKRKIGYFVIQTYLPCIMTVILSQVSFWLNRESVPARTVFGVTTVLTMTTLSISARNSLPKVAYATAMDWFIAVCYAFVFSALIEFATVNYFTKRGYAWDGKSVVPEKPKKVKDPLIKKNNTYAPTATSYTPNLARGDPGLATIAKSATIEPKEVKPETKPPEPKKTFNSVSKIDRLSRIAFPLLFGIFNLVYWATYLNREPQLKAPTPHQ
T1 sequence (P63138 26-474, stated change not applied): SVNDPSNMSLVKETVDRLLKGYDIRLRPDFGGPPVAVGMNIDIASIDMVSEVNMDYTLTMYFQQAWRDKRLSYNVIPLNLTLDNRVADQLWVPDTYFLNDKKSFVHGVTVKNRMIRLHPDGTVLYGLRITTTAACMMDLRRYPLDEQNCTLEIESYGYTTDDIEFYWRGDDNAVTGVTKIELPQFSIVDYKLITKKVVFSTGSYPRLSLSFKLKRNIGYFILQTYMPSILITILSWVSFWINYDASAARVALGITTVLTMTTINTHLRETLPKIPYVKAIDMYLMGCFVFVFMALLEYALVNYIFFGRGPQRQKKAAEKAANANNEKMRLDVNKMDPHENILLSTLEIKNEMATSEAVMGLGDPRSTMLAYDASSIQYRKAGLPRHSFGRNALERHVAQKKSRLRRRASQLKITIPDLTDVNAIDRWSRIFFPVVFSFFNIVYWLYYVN
T1 sequence (P18508 with tags, fused parts or gaps INS375LLRMFSFK): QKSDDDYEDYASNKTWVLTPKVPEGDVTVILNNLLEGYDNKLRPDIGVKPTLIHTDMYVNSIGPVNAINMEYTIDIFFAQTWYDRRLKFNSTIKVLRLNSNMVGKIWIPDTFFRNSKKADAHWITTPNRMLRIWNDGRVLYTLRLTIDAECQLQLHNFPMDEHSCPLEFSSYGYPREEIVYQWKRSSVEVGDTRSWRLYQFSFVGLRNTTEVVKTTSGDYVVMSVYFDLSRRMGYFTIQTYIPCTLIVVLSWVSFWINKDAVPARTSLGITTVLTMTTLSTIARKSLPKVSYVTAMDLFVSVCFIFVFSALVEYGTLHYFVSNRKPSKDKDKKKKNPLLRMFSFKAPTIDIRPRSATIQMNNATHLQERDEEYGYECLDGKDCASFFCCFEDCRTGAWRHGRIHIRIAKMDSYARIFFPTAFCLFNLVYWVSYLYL
Description: The compounds of the present disclosure were evaluated for the ability to potentiate chloride currents mediated by 2 μM GABA at rat α1β2γ2L type GABAA receptors expressed in Xenopus laevis oocytes and the results are shown in Table 2.
The GABA concentration used for the control response was 2 μM. Each compound was evaluated on at least four different oocytes at the concentrations indicated, and the results reported are the ratio of currents measured in the presence/absence of added compound. Gating represents direct current gated by 10 μM compound in the absence of GABA, and this current is reported as the ratio of compound only current/2 μM GABA current. Error limits are calculated as standard error of the mean (N≥4). Methods used are known in the art (see Jiang, X., et al.).

[3] = test system: tadpole; assay: Tadpole loss of righting reflex (LRR) and loss of swimming reflex (LSR); format: in vivo; conditions: ± SEM
Description: Table 3 discloses the anesthetic effects of the compounds of the present disclosure. In particular, the anesthetic effect of the compounds of the present disclosure on Loss of Righting Reflex (LRR) and Loss of Swimming Reflex (LSR).
Methods used are known in the art (see Jiang, X., et al.). Error limits are calculated as standard error of the mean (N=10 or more animals at each of five or more different concentrations).

[4] = loss of righting reflex, read-out: Tadpole LRR EC50
[5] = loss of swimming reflex, read-out: Tadpole LSR EC50

Row | Structure (SMILES) | IC50 [1] | Oocyte electrophysiology (gating) 10 μM [2] | Oocyte electrophysiology 0.1 μM [2] | Oocyte electrophysiology 1.0 μM [2] | Oocyte electrophysiology 10 μM [2] | EC50 [3, 4] | Tadpole LSR EC50 ([3]; loss of swimming reflex) | melting point | EC50 [3, 5]
1 | C[C@@]12CC[C@H]3C[C@H]4C[C@H](O)CC[C@@H]4C[C@@H]3[C@H]1CCC2=O [MQ-64, (3aR,5aS,6aS,8R,10aR,11aS,11bR)-Hexadecahydro-8-hydroxy-3a-methyl-3H-cyclopent[a]anthracen-3-one] | 346 ± 33 nM | 0.04 ± 0.03 | 0.98 ± 0.02 | 2.21 ± 0.17 | 8.81 ± 1.87 | 3080 ± 10 nM | None | 152 to 154 °C | 
2 | C[C@@]12CC[C@H]3C[C@H]4C[C@H](O)CC[C@@H]4C[C@@H]3[C@H]1CC[C@]21CO1 [MQ-65, (2′R,3R,3aR,5aS,6aS,8R,10aR,11aS,11bR)-Hexadecahydro-3a-methyl-spiro[3H-cyclopent[a]anthracene-3,2′-oxiran]-8-ol] | 251 ± 66 nM | 0.02 ± 0.0 | 1.27 ± 0.04 | 2.94 ± 0.28 | 6.86 ± 1.34 | 2090 ± 120 nM |  | 143 to 145 °C | 5480 ± 20 nM
3 | C[C@]12CC[C@@H]3C[C@@H]4C[C@@H](O)CC[C@H]4C[C@H]3[C@@H]1CCC2=O [MQ-74, (3aS,5aR,6aR,8S,10aS,11aR,11bS)-Hexadecahydro-8-hydroxy-3a-methyl-cyclopent[a]anthracen-3-one] | 1190 nM | −0.01 ± 0.04 | 0.80 ± 0.06 | 1.00 ± 0.0 | 3.88 ± 0.56 | 3220 ± 30 nM |  | 152 to 154 °C | > 10000 nM
4 | C[C@]12CC[C@@H]3C[C@@H]4C[C@@H](O)CC[C@H]4C[C@H]3[C@@H]1CC[C@@]21CO1 [MQ-75, (2′S,3S,3aS,5aR,6aR,8S,10aS,11aR,11bS)-Hexadecahydro-3a-methyl-spiro[3H-cyclopent[a]anthracene-3,2′-oxiran]-8-ol] | 226 ± 2 nM | 0.13 ± 0.04 | 1.36 ± 0.03 | 7.67 ± 0.71 | 18.86 ± 1.99 | 260 ± 40 nM |  | 140 to 142 °C | 950 nM
5 | C[C@]12CC[C@@H]3C[C@@H]4C[C@@H](O)CC[C@H]4C[C@H]3[C@@H]1CC=C2C#N [MQ-76, (3aS,5aR,6aR,8S,10aS,11aR,11bS)-8-Hydroxy-3a-methyl-3a,4,5,5a,6,6a,7,8,9,10,10a,11,11a,11b-Tetradecahydro-1H-cyclopent[a]anthracene-3-carbonitrile] | 574 ± 142 nM | 0.31 ± 0.30 | 0.95 ± 0.20 | 2.08 ± 0.16 | 9.43 ± 0.77 | 390 ± 10 nM |  | 164 to 166 °C | 1730 ± 30 nM
6 | C[C@]12CC[C@@H]3C[C@@H]4C[C@@H](O)CC[C@H]4C[C@H]3[C@@H]1CC[C@@H]2C#N [MQ-77, (3S,3aS,5aR,6aR,8S,10aS,11aR,11bS)-Hexadecahydro-8-hydroxy-3a-methyl-cyclopent[a]anthracene-3-carbonitrile] | 400 ± 118 nM | 0.02 ± 0.09 | 1.03 ± 0.10 | 3.65 ± 0.39 | 14.80 ± 1.53 | 590 ± 70 nM |  |  | 1730 ± 40 nM
7 | C[C@@]12CC[C@H]3C[C@H]4C[C@H](O)CC[C@@H]4C[C@@H]3[C@H]1CC=C2C#N [MQ-81, (3aR,5aS,6aS,8R,10aR,11aS,11bR)-8-Hydroxy-3a-methyl-3a,4,5,5a,6,6a,7,8,9,10,10a,11,11a,11b-Tetradecahydro-1H-cyclopent[a]anthracene-3-carbonitrile] | 174 ± 14 nM | 0.09 ± 0.01 | 1.37 ± 0.14 | 5.69 ± 0.17 | 18.39 ± 0.70 | 770 ± 40 nM |  | 165 to 167 °C | 1730 ± 40 nM
8 | C[C@@]12CC[C@H]3C[C@H]4C[C@H](O)CC[C@@H]4C[C@@H]3[C@H]1CC(=O)C2 [MQ-82, (3aS,5aS,6aS,8R,10aR,11aS,11bR)-8-Hydroxy-3a-methyl-hexadecahydro-2H-cyclopenta[a]anthracen-2-one] | 2680 nM | 0.19 ± 0.17 | 0.80 ± 0.04 | 0.83 ± 0.06 | 2.43 ± 0.34 | 3110 ± 10 nM |  | 145 to 147 °C | 7930 nM
